Measurements: PubChem BioAssay AID1963849 (Molecular Pharmacology Branch, DTP, NCI, 2024)

Test system: 299254-011-R-J1-PDC complex spheroid viability
Assay: Anticancer human tumor 299254-011-R-J1-PDC patient-derived melanoma cell line growth inhibition [POLQ]
Conditions: for IC50: curve of first compound; for viability, T/C: stronger effect = lower value; active means viability on the fitted dose curve at most 10% of control; inactive means the rest
Outline: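 Growth inhibition in 3D: complex spheroids (tumor PDC, HUVEC, MSC) treated with POLQ inhibitor combinations; where Cmax unknown, highest tested concentration 10 microM, except SN-38 at 1 microM.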
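Further: spheroids exposed to drugs for one week before measurement.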
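Wherever viability, T/C is given: percent viability relative to DMSO vehicle control taken as 100%.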

CNCc1ccc(-c2[nH]c3cc(F)cc4c3c2CCNC4=O)cc1 + Nc1ccc(C#CCN(C(=O)Cc2ncc(C(F)(F)F)cc2C(F)(F)F)c2ccc(F)cc2)nn1
inactive: viability, T/C (second compound 0.0316 µM, first compound 0.0316 µM) 108% | viability, T/C (second compound 0.0316 µM, first compound 0.1 µM) 107% | viability, T/C (second compound 0.0316 µM, first compound 0.316 µM) 109% | viability, T/C (second compound 0.0316 µM, first compound 1 µM) 122% | viability, T/C (second compound 0.0316 µM, first compound 3.16 µM) 110% | viability, T/C (second compound 0.0316 µM, first compound 10 µM) 103% | viability, T/C (second compound 0.1 µM, first compound 0.0316 µM) 115% | viability, T/C (second compound 0.1 µM, first compound 0.1 µM) 117% | viability, T/C (second compound 0.1 µM, first compound 0.316 µM) 99.8% | viability, T/C (second compound 0.1 µM, first compound 1 µM) 105% | viability, T/C (second compound 0.1 µM, first compound 3.16 µM) 109% | viability, T/C (second compound 0.1 µM, first compound 10 µM) 109% | viability, T/C (second compound 0.316 µM, first compound 0.0316 µM) 106% | viability, T/C (second compound 0.316 µM, first compound 0.1 µM) 107% | viability, T/C (second compound 0.316 µM, first compound 0.316 µM) 96.4% | viability, T/C (second compound 0.316 µM, first compound 1 µM) 95.7% | viability, T/C (second compound 0.316 µM, first compound 3.16 µM) 119% | viability, T/C (second compound 0.316 µM, first compound 10 µM) 129% | viability, T/C (second compound 1 µM, first compound 0.0316 µM) 113% | viability, T/C (second compound 1 µM, first compound 0.1 µM) 111% | viability, T/C (second compound 1 µM, first compound 0.316 µM) 94.4% | viability, T/C (second compound 1 µM, first compound 1 µM) 102% | viability, T/C (second compound 1 µM, first compound 3.16 µM) 129% | viability, T/C (second compound 1 µM, first compound 10 µM) 114% | viability, T/C (second compound 3.16 µM, first compound 0.0316 µM) 106% | viability, T/C (second compound 3.16 µM, first compound 0.1 µM) 105% | viability, T/C (second compound 3.16 µM, first compound 0.316 µM) 110% | viability, T/C (second compound 3.16 µM, first compound 1 µM) 95.9% | viability, T/C (second compound 3.16 µM, first compound 3.16 µM) 124% | viability, T/C (second compound 3.16 µM, first compound 10 µM) 124% | viability, T/C (second compound 10 µM, first compound 0.0316 µM) 107% | viability, T/C (second compound 10 µM, first compound 0.1 µM) 96.2% | viability, T/C (second compound 10 µM, first compound 0.316 µM) 93.1% | viability, T/C (second compound 10 µM, first compound 1 µM) 103% | viability, T/C (second compound 10 µM, first compound 3.16 µM) 102% | viability, T/C (second compound 10 µM, first compound 10 µM) 94.1%
> 10 µM: IC50 (second compound 0.0316 µM) | IC50 (second compound 0.1 µM) | IC50 (second compound 0.316 µM) | IC50 (second compound 1 µM) | IC50 (second compound 3.16 µM) | IC50 (second compound 10 µM)
